These are literature values, as cited in patent US20050042177A1, “Novel compositions of sildenafil free base” (Elan Pharma International Ltd., priority 2003, published 2005).

For one series, the system named is PDE6. The conditions noted are these: PDE5 versus PDE6.
The mark [1] stands for this setting: 100 mg oral dose, healthy adult males.

Usually Tmax stands for the time from dosing to the highest level. Consider `CCCc1nn(C)c2c(=O)[nH]c(-c3cc(S(=O)(=O)N4CCN(C)CC4)ccc3OCC)nc12.O=C(O)CC(O)(CC(=O)O)C(=O)O` [Sildenafil citrate, 1-[[3-(6,7-dihydro-1-methyl-7-oxo-3-propyl-1H-pyrazolo[4,3-d]pyrimidin-5-yl)-4-ethoxyphenyl]sulfonyl]-4 methylpiperazine citrate], for which, under setting [1], the Tmax is 60 min, the “mean Cmax” value was 440 ng/mL and the t1/2 result is “about 4 hours”. Besides, the absolute bioavailability (in vivo) is reported as 40%.
With `CCCc1nn(C)c2c(=O)[nH]c(-c3cc(S(=O)(=O)N4CCN(C)CC4)ccc3OCC)nc12` [Sildenafil, 1-[[3-(6,7-dihydro-1-methyl-7-oxo-3-propyl-1H-pyrazolo[4,3-d]pyrimidin-5-yl)-4-ethoxyphenyl]sulfonyl]-4-methylpiperazine], the “potency for PDE5 as compared to PDE6” value with PDE6 is reported as “approximately 10 fold”.
